Assay results published in the supplement of paper PMC10307832.

Key:
Assay in all cases: relative viability (nuclei count vs DMSO), 5 days (fraction); higher = more cells survive
[1] = compound: CN1CCN(CC1)C2=CC(=C(C=C2)NC3=NC=C4C(=N3)N(C5=CC=CC=C5C(=O)N4C)C)OC [XMD8-85] + CC(=O)c1c(C)c2cnc(Nc3ccc(N4CCNCC4)cn3)nc2n(C2CCCC2)c1=O [Palbociclib] (partner 0.5 µM)
Method in brief: (§1)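 Values are medians from duplicate plates. Each reflects relative viability, defined as the nuclei count of treated wells over that of vehicle wells. Lung cancer cell lines in 1536-well plates were pin-tool dosed one day after seeding with one drug alone or with a fixed anchor-drug dose plus five library-drug doses (not always all listed) in √10 steps, then fixed, stained and imaged at 4× after 5 days.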

[2] = compound: CN1CCN(CC1)C2=CC(=C(C=C2)NC3=NC=C4C(=N3)N(C5=CC=CC=C5C(=O)N4C)C)OC [XMD8-85] + CCNC(=O)c1noc(-c2cc(C(C)C)c(O)cc2O)c1-c1ccc(CN2CCOCC2)cc1 [Luminespib] (partner 0.01 µM)
Method in brief: as §1

[3] = compound: CN1CCN(CC1)C2=CC(=C(C=C2)NC3=NC=C4C(=N3)N(C5=CC=CC=C5C(=O)N4C)C)OC [XMD8-85] + NC(=O)Nc1cc(-c2cccc(F)c2)sc1C(=O)N[C@H]1CCCNC1 [AZD7762] (partner 0.2 µM)
Method in brief: as §1

[4] = compound: O=C(O)C(Cc1ccccc1[N+](=O)[O-])=NNc1nc(-c2ccc(Cl)c(Cl)c2)cs1 (mixture of isomers) [4EGI-1] + CC(=O)c1c(C)c2cnc(Nc3ccc(N4CCNCC4)cn3)nc2n(C2CCCC2)c1=O [Palbociclib] (partner 0.5 µM)
Method in brief: as §1

Row | Cell Line | relative viability ([1]; first compound 0.08 µM) | relative viability ([1]; first compound 0.253 µM) | relative viability ([1]; first compound 0.8 µM) | relative viability ([1]; first compound 2.53 µM) | relative viability ([1]; first compound 8 µM) | relative viability ([2]; first compound 0.08 µM) | relative viability ([2]; first compound 0.253 µM) | relative viability ([2]; first compound 0.8 µM) | relative viability ([2]; first compound 2.53 µM) | relative viability ([2]; first compound 8 µM) | relative viability ([3]; first compound 0.253 µM) | relative viability ([3]; first compound 0.8 µM) | relative viability ([3]; first compound 2.53 µM) | relative viability ([3]; first compound 8 µM) | relative viability ([4]; first compound 0.5 µM) | relative viability ([4]; first compound 5 µM) | relative viability ([4]; first compound 15.81 µM) | relative viability ([4]; first compound 50 µM) | relative viability ([3]; first compound 0.08 µM) | relative viability ([4]; first compound 1.581 µM)
1 | PC-3 [JPC-3] | 0.489 | 0.539 | 0.551 | 0.583 | 0.564 | 0.725 | 0.805 | 0.663 | 0.82 | 0.543 | 0.782 | 0.82 | 0.712 | 0.411 | 0.472 | 0.573 | 0.472 | 0.458 | – | –
2 | RERF-LC-KJ | 1.09 | 1.13 | 1.18 | 1.23 | 0.768 | 1.32 | 1.14 | 1.3 | 1.1 | 0.779 | 0.98 | 0.936 | 1.3 | 0.886 | 1.09 | 0.953 | 0.882 | 0.625 | 1.01 | 0.481
3 | NCI-H2170 | 0.38 | 0.374 | 0.436 | 0.383 | 0.332 | 0.887 | 0.609 | 0.931 | 0.894 | 0.474 | 0.937 | 0.92 | 0.918 | 0.759 | 0.423 | 0.382 | 0.392 | 0.273 | 0.784 | 0.363
4 | NCI-H1993 | 0.564 | 0.595 | 0.612 | 0.692 | 0.61 | 0.79 | 0.837 | 0.929 | 0.928 | 0.746 | 0.716 | 0.959 | 0.844 | 0.818 | 0.727 | 0.584 | 0.52 | 0.366 | 0.772 | 0.624
5 | A-427 | 0.521 | 0.544 | 0.571 | 0.52 | 0.463 | 1.06 | 1.08 | 1.25 | 1.1 | 0.669 | 0.81 | 0.675 | 0.63 | 0.478 | 0.543 | 0.535 | 0.492 | 0.319 | – | –
6 | ABC-1 | 0.468 | 0.598 | 0.781 | 0.689 | – | – | – | 0.793 | 0.703 | 0.373 | 0.805 | 0.799 | 0.876 | 0.859 | 0.73 | 0.738 | 0.527 | 0.249 | 0.904 | –
7 | CAL-12T | 0.308 | 0.499 | – | 0.474 | 0.196 | 0.315 | 0.652 | 0.339 | 0.333 | 0.216 | 0.642 | 0.604 | – | 0.466 | 0.618 | 0.577 | 0.169 | 0.145 | 0.545 | –
8 | NCI-H3122 | 0.188 | 0.192 | 0.218 | 0.186 | 0.215 | 0.117 | – | 0.115 | 0.106 | 0.102 | 1.08 | 1.05 | 1.06 | 1.14 | 0.191 | 0.152 | 0.227 | 0.199 | 1.05 | 0.158
9 | LOU-NH91 | 0.536 | 0.496 | 0.503 | 0.534 | 0.514 | 0.413 | 0.31 | 0.326 | 0.523 | 0.309 | 0.763 | 0.806 | 0.835 | 0.59 | 0.493 | 0.519 | 0.581 | 0.52 | 0.678 | –
